Molecules are shown by their SMILES. Some results are limits rather than exact numbers.

For one test, the target named is T1, ABL T315I BAF3 cells (Homo sapiens, UniProt P00519, T315I, cells depend on it).
T1 construct: ABL T315I BAF3; fused on or other part: P11274 (Breakpoint cluster region protein)
In words: 96-well XTT cell survival assay, BaF3 ABL T315I. The conditions noted are these: 72 hours, read-out: CELL BIO ABL T315I BAF3 XTT (IC50). It is filed as cell-based. In short, it runs like this: (§1)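 Ba/F3 cells in RPMI 1640 with 10% FBS (IL-3 medium for maintenance) were seeded at 5000-8000 cells/well and exposed to compound dilutions in duplicate for 72 h at 37° C. Viability read by XTT/PMS, absorbance 405 nm minus 650 nm after 2-6 h.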
Background: Formazan colour is commonly taken as a measure of viable cells.

Test [1] has as its target T2, purified and unphosphorylated T315I Abl kinase domain (ABL_T315I_0P) (Mus musculus, UniProt P00520, T315I).
T2 construct: The c-Abl T3151 KD (kinase domain) was purified as follows; Met-Ser-Leu (vector-derived residues) (N); made in house; host or cells: E. coli BL21(DE3) strains (Codon+RIL, or pSA0145 for the lambda phosphatase co-expression plasmid)
T2 sequence (P00520 242-493 T315I limits assumed): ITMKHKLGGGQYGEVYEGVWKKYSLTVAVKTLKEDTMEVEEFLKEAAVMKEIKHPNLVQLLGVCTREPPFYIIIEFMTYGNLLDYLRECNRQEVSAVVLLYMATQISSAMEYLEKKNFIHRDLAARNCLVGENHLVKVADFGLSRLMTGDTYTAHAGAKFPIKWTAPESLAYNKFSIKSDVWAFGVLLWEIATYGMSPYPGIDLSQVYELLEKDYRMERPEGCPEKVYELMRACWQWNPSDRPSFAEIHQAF
The test can be described thus: c-Abl T315I (unphosphorylated kinase domain) pyruvate kinase/lactate dehydrogenase coupled enzyme assay. Particulars: 10 μM ATP. It is filed as biochemical.

Another test concerns the target T3, ABL P210WT BAF3 cells (Homo sapiens, UniProt P00519).
T3 construct: ABL P210WT BAF3; fused on or other part: P11274 (Breakpoint cluster region protein)
The test can be described thus: 96-well XTT cell survival assay, BaF3 ABL P210WT. The class given is cell-based. The conditions noted are these: ABL P210 WT, 72 hours, read-out: CELL BIO ABL P210WT BAF3 XTT (IC50). Summed up: as §1

Usually IC50 stands for the concentration that inhibits the measured activity by half. Lower therefore signals higher potency. In the case of `COc1cc(Cl)c(F)cc1-c1c[nH]c2ncc(-c3cnc(N)c(C(=O)N(C)C)c3)cc12`, the GI50 was 10 to 100 nM at ABL T315I BAF3 cells and < 10 nM on ABL P210WT BAF3 cells. Moreover, the IC50 in test [1] is < 10 nM.
As to `CN(C)C(=O)Cc1cncc(-c2cnc3[nH]cc(-c4ccccc4)c3c2Cl)c1` [2-[5-(4-Chloro-3-phenyl-1H-pyrrolo[2,3-b]pyridin-5-yl)-pyridin-3-yl]-N,N-dimethyl-acetamide], the GI50 on ABL T315I BAF3 cells and at ABL P210WT BAF3 cells was > 1000 nM each time. Moreover, the “ABL_T315I_0P (IC50)” value in test [1] was “D (<0.01 μM)”.
As to `CN(C)C(=O)c1cc(-c2cnc3[nH]cc(-c4ccc5c(c4)CC(=O)N5)c3c2Cl)cnc1N` [2-Amino-5-[4-chloro-3-(2-oxo-2,3-dihydro-1H-indol-5-yl)-1H-pyrrolo[2,3-b]pyridin-5-yl]-N,N-dimethyl-nicotinamide], the GI50 is > 1000 nM on ABL T315I BAF3 cells and 100 to 1000 nM on ABL P210WT BAF3 cells. Further, the “ABL_T315I_0P (IC50)” value in test [1] is listed as “D (<0.01 μM)”.
In the same order, the values of `COc1cc(F)ccc1-c1c[nH]c2ncc(-c3cnc(N)c(C(=O)N(C)C)c3)c(Cl)c12` [2-Amino-5-[4-chloro-3-(4-fluoro-2-methoxy-phenyl)-1H-pyrrolo[2,3-b]pyridin-5-yl]-N,N-dimethyl-nicotinamide] are 10 to 100 nM, 10 to 100 nM and “D (<0.01 μM)”.
Taken in the same sequence, the figures for `CN(C)C(=O)c1cncc(-c2cnc3[nH]cc(-c4ccc(F)cc4)c3c2Cl)n1` [6-[4-Chloro-3-(4-fluoro-phenyl)-1H-pyrrolo[2,3-b]pyridin-5-yl]-pyrazine-2-carboxylic acid dimethylamide] were > 1000 nM, 100 to 1000 nM and “D (<0.01 μM)”.
In the same order, the values of `COc1ccc(F)cc1-c1c[nH]c2ncc(-c3cncc(C(=O)N(C)C)c3)c(Cl)c12` [5-[4-Chloro-3-(5-fluoro-2-methoxy-phenyl)-1H-pyrrolo[2,3-b]pyridin-5-yl]-N,N-dimethyl-nicotinamide] are 10 to 100 nM, < 10 nM and “D (<0.01 μM)”.
For `COc1ccccc1-c1n[nH]c2ncc(-c3cncc(C(O)C(=O)N(C)C)c3)c(Cl)c12` (stereo not drawn) [2-{5-[4-Chloro-3-(2-methoxy-phenyl)-1H-pyrazolo[3,4-b]pyridin-5-yl]-pyridin-3-yl}-2-hydroxy-N,N-dimethyl-acetamide], the GI50 at ABL T315I BAF3 cells and on ABL P210WT BAF3 cells was 100 to 1000 nM in each case. For the same molecule, the “ABL_T315I_0P (IC50)” value in test [1] is reported as “C (0.1-0.01 μM)”.
Turning to `COc1ccc(F)cc1-c1c[nH]c2ncc(-c3cncc(C(O)c4ncccc4F)c3)c(Cl)c12` (stereo not drawn) [{5-[4-Chloro-3-(5-fluoro-2-methoxy-phenyl)-1H-pyrrolo[2,3-b]pyridin-5-yl]-pyridin-3-yl}-(3-fluoro-pyridin-2-yl)-methanol], the results for the GI50 on ABL T315I BAF3 cells and at ABL P210WT BAF3 cells were 10 to 100 nM and < 10 nM, respectively. Moreover, in test [1], the “ABL_T315I_0P (IC50)” value was “D (<0.01 μM)”.
Turning to `CN(C)C(=O)c1cc(-c2cnc3[nH]cc(-c4cccc(F)c4)c3c2Cl)cnc1N` [2-Amino-5-[4-chloro-3-(3-fluoro-phenyl)-1H-pyrrolo[2,3-b]pyridin-5-yl]-N,N-dimethyl-nicotinamide], the GI50 on ABL T315I BAF3 cells and on ABL P210WT BAF3 cells was 100 to 1000 nM throughout. For the same molecule, in test [1], the “ABL_T315I_0P (IC50)” value was “D (<0.01 μM)”.
Consider `OC(c1cccc(-c2cnc3[nH]cc(-c4ccc(F)cc4)c3c2Cl)c1)c1ncco1` (stereo not drawn) [{3-[4-Chloro-3-(4-fluoro-phenyl)-1H-pyrrolo[2,3-b]pyridin-5-yl]-phenyl}-oxazol-2-yl-methanol], for which the GI50 at ABL T315I BAF3 cells and on ABL P210WT BAF3 cells was > 1000 nM each time. Besides, the “ABL_T315I_0P (IC50)” value in test [1] is given as “C (0.1-0.01 μM)”.
On to `Nc1ncc(-c2cnc3[nH]cc(-c4cc(F)ccc4F)c3c2Cl)cc1C(=O)N1CCOCC1` [{2-Amino-5-[4-chloro-3-(2,5-difluoro-phenyl)-1H-pyrrolo[2,3-b]pyridin-5-yl]-pyridin-3-yl}-morpholin-4-yl-methanone], for which the GI50 at ABL T315I BAF3 cells and on ABL P210WT BAF3 cells was 100 to 1000 nM each time. For the same molecule, in test [1], the “ABL_T315I_0P (IC50)” value is on record as “D (<0.01 μM)”.
As to `CN(C)C(=O)c1cc(-c2cnc3[nH]cc(-c4cc(F)ccc4Cl)c3c2Cl)cnc1N` [2-Amino-5-[4-chloro-3-(2-chloro-5-fluoro-phenyl)-1H-pyrrolo[2,3-b]pyridin-5-yl]-N,N-dimethyl-nicotinamide], the GI50 at ABL T315I BAF3 cells and at ABL P210WT BAF3 cells was 100 to 1000 nM throughout. For the same molecule, the “ABL_T315I_0P (IC50)” value in test [1] is given as “D (<0.01 μM)”.
Take `CN(C)C(=O)c1cncc(-c2cnc3[nH]cc(-c4ccccc4F)c3c2Cl)n1` [6-[4-chloro-3-(2-fluoro-phenyl)-1H-pyrrolo[2,3,b]pyridine-5-]: the GI50 at ABL T315I BAF3 cells and on ABL P210WT BAF3 cells was 100 to 1000 nM throughout. Further, the “ABL_T315I_0P (IC50)” value in test [1] is “D (<0.01 μM)”.
Take `CN(C)C(=O)c1cncc(-c2cnc3[nH]nc(-c4ccccc4)c3c2Cl)c1` [5-(4-Chloro-3-phenyl-1H-pyrazolo[3,4-b]pyridin-5-yl)-N,N-dimethyl-nicotinamide]: the GI50 on ABL T315I BAF3 cells and at ABL P210WT BAF3 cells was > 1000 nM each time. Besides, in test [1], the “ABL_T315I_0P (IC50)” value is on record as “B (1.0-0.1 μM)”.
Turning to `CN(C)C(=O)C(O)c1cncc(-c2cnc3[nH]cc(-c4cccc(F)c4F)c3c2Cl)c1` (stereo not drawn) [2-{5-[4-Chloro-3-(2,3-difluoro-phenyl)-1H-pyrrolo[2,3-b]pyridin-5-yl]-pyridin-3-yl}-2-hydroxy-N,N-dimethyl-acetamide], the GI50 on ABL T315I BAF3 cells and on ABL P210WT BAF3 cells was 100 to 1000 nM each time. Further, the “ABL_T315I_0P (IC50)” value in test [1] is recorded as “D (<0.01 μM)”.
On to `Nc1ncc(-c2cnc3[nH]cc(-c4cc(F)ccc4F)c3c2Cl)cc1C(=O)N1CC(O)C1` [{2-Amino-5-[4-chloro-3-(2,5-difluoro-phenyl)-1H-pyrrolo[2,3-b]pyridin-5-yl]-pyridin-3-yl}-(3-hydroxy-azetidin-1-yl)-methanone], for which the GI50 at ABL T315I BAF3 cells and at ABL P210WT BAF3 cells was 100 to 1000 nM throughout. Also, the “ABL_T315I_0P (IC50)” value in test [1] was “D (<0.01 μM)”.
In the case of `CN(C)C(=O)c1nc(-c2cnc3[nH]cc(-c4ccccc4)c3c2Cl)cnc1N` [3-Amino-6-(4-chloro-3-phenyl-1H-pyrrolo[2,3-b]pyridin-5-yl)-pyrazine-2-carboxylic acid dimethylamide], the GI50 on ABL T315I BAF3 cells and at ABL P210WT BAF3 cells was 100 to 1000 nM in each case. Besides, the “ABL_T315I_0P (IC50)” value in test [1] is “D (<0.01 μM)”.
Turning to `CN(C)C(=O)C(O)c1cncc(-c2cnc3[nH]cc(-c4ccccc4)c3c2Cl)c1` (stereo not drawn) [2-[5-(4-Chloro-3-phenyl-1H-pyrrolo[2,3-b]pyridin-5-yl)-pyridin-3-yl]-2-hydroxy-N,N-dimethyl-acetamide], the GI50 at ABL T315I BAF3 cells and on ABL P210WT BAF3 cells was 100 to 1000 nM each time. Moreover, in test [1], the “ABL_T315I_0P (IC50)” value was “D (<0.01 μM)”.
For `OC(c1cncc(-c2cnc3[nH]cc(-c4ccccc4)c3c2Cl)c1)c1ncccc1F` (stereo not drawn) [[5-(4-Chloro-3-phenyl-1H-pyrrolo[2,3-b]pyridin-5-yl)-pyridin-3-yl]-(3-fluoro-pyridin-2-yl)-methanol], the GI50 on ABL T315I BAF3 cells and on ABL P210WT BAF3 cells was 100 to 1000 nM throughout. Further, the “ABL_T315I_0P (IC50)” value in test [1] is “D (<0.01 μM)”.
Regarding `Nc1ncc(-c2cnc3[nH]cc(-c4cccc(F)c4)c3c2Cl)cc1C(=O)N1CC(O)C1` [{2-Amino-5-[4-chloro-3-(3-fluoro-phenyl)-1H-pyrrolo[2,3-b]pyridin-5-yl]-pyridin-3-yl}-(3-hydroxy-azetidin-1-yl)-methanone], the GI50 on ABL T315I BAF3 cells and at ABL P210WT BAF3 cells was 100 to 1000 nM in each case. Besides, the “ABL_T315I_0P (IC50)” value in test [1] is listed as “D (<0.01 μM)”.
As for `CN(C)C(=O)c1cncc(-c2cnc3[nH]cc(-c4ccccc4F)c3c2Cl)n1` [6-[4-Chloro-3-(2-fluoro-phenyl)-1H-pyrrolo[2,3-b]pyridin-5-y] [6-[4-Chloro-3-(2-fluoro-phenyl)-1H-pyrrolo[2,3-b]pyridin-5-yl]-pyrazine-2-carboxylic acid dimethylamide], the GI50 on ABL T315I BAF3 cells and on ABL P210WT BAF3 cells was > 1000 nM in each case. In test [1], the “ABL_T315I_0P (IC50)” value is recorded as “D (<0.01 μM)”.
Take `COc1ccccc1-c1c[nH]c2ncc(-c3cncc(C(O)C(=O)N(C)C)c3)c(Cl)c12` (stereo not drawn) [2-{5-[4-Chloro-3-(2-methoxy-phenyl)-1H-pyrrolo[2,3-b]pyridin-5-yl]-pyridin-3-yl}-2-hydroxy-N,N-dimethyl-acetamide]: the GI50 at ABL T315I BAF3 cells and on ABL P210WT BAF3 cells was < 10 nM each time. The “ABL_T315I_0P (IC50)” value in test [1] is “D (<0.01 μM)”.
`CN(C)C(=O)c1cncc(-c2cnc3[nH]cc(-c4cccc(F)c4F)c3c2Cl)c1` [5-[4-Chloro-3-(2,3-difluoro-phenyl)-1H-pyrrolo[2,3-b]pyridin-5-yl]-N,N-dimethyl-nicotinamide]: the GI50 on ABL T315I BAF3 cells and on ABL P210WT BAF3 cells was 100 to 1000 nM throughout. Also, in test [1], the “ABL_T315I_0P (IC50)” value is on record as “D (<0.01 μM)”.
For `COc1ccc(F)cc1-c1c[nH]c2ncc(-c3cnc(N)c(C(=O)N(C)C)c3)c(Cl)c12` [2-Amino-5-[4-chloro-3-(5-fluoro-2-methoxy-phenyl)-1H-pyrrolo[2,3-b]pyridin-5-yl]-N,N-dimethyl-nicotinamide], the GI50 at ABL T315I BAF3 cells and on ABL P210WT BAF3 cells was < 10 nM in each case. The “ABL_T315I_0P (IC50)” value in test [1] was “D (<0.01 μM)”.

Values taken from patent US8158647B2, “Substituted pyrrolopyridines and pyrazolopyridines as kinase modulators” (SGX Pharmaceuticals, Inc., priority 2007, dated 2012).
